Test results from US20160136120A1, “TRANSDERMAL DELIVERY KITS” (ASCLEMED USA, INC. dba EnovaChem Manufacturing, priority 2013, published 2016).

Assay: Stability tests of API mixed with Microderm base, stored in a jar with closed lid (LC-UV assay)
Type: physicochemical
Conditions: as illustrated in the stability studies
Procedure: The stability tests were carried out by mixing the API (USP strength) with Microderm™, and placing the resulting composition in ajar with a closed lid.
Column: 4.6-mm×25.0-cm; 5-μm packing L1
Storage condition: 20° C. to 25° C. (68° F. to 77° F.)

Susceptibility to degradation: particularly susceptible to degradation
Compound: NCC(CC(=O)O)c1ccc(Cl)cc1 (stereo not drawn) [Baclofen, β-(4-chlorophenyl)-γ-aminobutyric acid]
